Measured values taken from article PMC11012793, “Mulberry Leaf Compounds and Gut Microbiota in Alzheimer’s Disease and Diabetes: A Study Using Network Pharmacology, Molecular Dynamics Simulation, and Cellular Assays” (International Journal of Molecular Sciences, 2024).

Molecular target: T1, protein tyrosine phosphatase 1B (PTP1B) (Homo sapiens, UniProt P18031)
T1 construct: gene PTPN1; catalytic domain (Met1-Glu298) of PTP1B (ΔPTP1B)
T1 sequence (P18031 1-298): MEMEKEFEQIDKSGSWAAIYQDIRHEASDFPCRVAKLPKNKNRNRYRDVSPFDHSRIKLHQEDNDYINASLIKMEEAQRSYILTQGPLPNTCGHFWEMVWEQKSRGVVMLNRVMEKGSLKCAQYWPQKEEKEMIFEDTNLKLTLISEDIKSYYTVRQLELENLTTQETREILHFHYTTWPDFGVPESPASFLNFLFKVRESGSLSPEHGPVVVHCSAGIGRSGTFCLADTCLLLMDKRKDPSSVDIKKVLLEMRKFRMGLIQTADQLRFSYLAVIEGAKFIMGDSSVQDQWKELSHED
Experiment: p-NPP phosphatase assay with purified recombinant PTP1B catalytic domain, absorbance at […] nm
Assay type: biochemical

**Q.** `O=c1c(O)c(-c2ccc(O)cc2)oc2cc(O)cc(O)c12` [kaempferol] was tested. Which IC50 did it give?
**A.** 279 µM
